The values that follow come from patent US20240335483A1, “NEW METHOD TO TREAT AUTOIMMUNE DISEASES” (INSTITUT NATIONAL DE LA SANTÉ ET DE LA RECHERCHE MÉDICALE, priority 2021, published 2024).

What all share (format): in vivo, mouse
Test [1] deals with NOD mice. Kind of test: Spontaneous diabetes incidence. The method, then:
Female NOD, BALB/c, C57BL/6J, C57BL/6J camp−/− in different ages were used, bred and housed in specific pathogen-free conditions. Recombinant mouse CRAMP1-39 and scrambled (sc)CRAMP1-39 were produced under aseptic conditions and provided after endotoxin removal processing (Innovagen). Newborn NOD mice were treated by intra-colonic treatment between 10 and 21 days of age every 3 days with CRAMP or scCRAMP (10 μg in 10 μL/mouse/injection) or vehicle (PBS-1% H2O). For blocking TLR experiments, newborn NOD mice were treated between 7 and 14 days of age every 3 days with TLR2 inhibitor CU CTP22 (25 μg in 10 μL/mouse/injection) or TLR4 inhibitor TAK242 (25 μg in 10 μL/mouse/injection) or with TLR5 inhibitor TH1020 (20 μg in 10 μL/mouse/injection) or with vehicle (PBS 1% DMSO). All inhibitors are from Tocris. For modulating IFNα experiment, newborn NOD mice were treated between 7 and 14 days of age every 3 days with anti-IFNα receptor mAb (200 μg in 10 μL/mouse/injection) (BioXcell) or equivalent amount of isotype control (mouse IgGI) or gardiquimod (50 μg in 10 μL/mouse/injection) or vehicle (PBS-1% H2O). For CRAMP-expressing probiotic experiment, pregnant NOD mice were given CRAMP-expressing Lactococcus lactis or conventional L. lactis ([…] colony forming units (cfu) in 100 μL PBS/mice) by oral gavage one day before delivery. For cross-fostering experiments, NOD pups were adopted immediately at birth by recipient mice (C57BL/6, BALB/c, CRAMP-treated NOD mice or NOD mice), that delivered the same day and pups from the two litters were maintained in the same cage. All animal experimental protocols were approved by the ethic committee for animal experimentation (APAFIS #3535-2015092416202090).
NOD mice were treated as described above with CRAMP or scCRAMP, anti-IFNαR mAb, gardiquimod or were born from CRAMP-expressing L. lactis treated NOD mice or were cross-fostered by CRAMP-treated NOD mice. […]
Diabetes incidence was plotted according to the Kaplan-Meier method. […] All data were analyzed using GraphPad Prism v6 software.

The test system of test [2] is microbiota. Kind of test: 16S rDNA gene sequencing of microbiota composition. To be noted: 5 weeks of age, after intracolonic CRAMP in newborn NOD mice. How it is done: Stools were recovered from 5 mice from 5 independent cages per group, and were stored at −80° C. in DNA/RNA Shield™ (Zymo Research, #R1100-250) immediately after emission before shipment to Zymo Research (ZymoBIOMICS Services). For CRAMP treatment experiments, pups from different litters were randomly mixed and then separate before treatment with CRAMP or scCRAMP. The samples were processed and analyzed with the ZymoBIOMICS® Targeted Sequencing Service for Microbiome Analysis (Zymo Research, Irvine, CA). DNA Extraction: One of three different DNA extraction kits was used depending on the sample type and sample volume. In most cases, the ZymoBIOMICS® DNA Miniprep Kit (Zymo Research, Irvine, CA) was used. For low biomass samples, such as skin swabs, the ZymoBIOMICS® DNA Microprep Kit (Zymo Research, Irvine, CA) was used as it permits for a lower elution volume, resulting in more concentrated DNA samples. For a large sample volume, the ZymoBIOMICS@-96 MagBead DNA Kit (Zymo Research, Irvine, CA) was used to extract DNA using an automated platform. Targeted Library Preparation: Bacterial 16S ribosomal RNA gene targeted sequencing was performed using the Quick-16S™ NGS Library Prep Kit (Zymo Research, Irvine, CA). The bacterial 16S primers amplified the V1-V2 or V3-V4 region of the 16S rRNA gene. These primers have been custom-designed by Zymo Research to provide the best coverage of the 16S gene while maintaining high sensitivity. Fungal ITS gene targeted sequencing was performed using the Quick-16S™ NGS Library Prep Kit with custom ITS2 primers substituted for 16S primers. […] The final PCR products were quantified with qPCR fluorescence readings and pooled together based on equal molarity. The final pooled library was cleaned up with the Select-a-Size DNA Clean & Concentrator™ (Zymo Research, Irvine, CA), then quantified with TapeStation®(Agilent Technologies, Santa Clara, CA) and Qubit® (Thermo Fisher Scientific, Waltham, […]). […] Bioinformatics Analysis: Unique amplicon sequences were inferred from raw reads using the DADA2 pipeline. […]

Test [3] relates to Treg cells. Kind of test: Flow cytometry of regulatory T cells in tissues. How it is done:
(§1) Pancreata were perfused with a solution of collagenase P in HBSS-1% HEPES (0.75 mg.ml-1, Roche), then dissected free from surrounding tissues. Pancreata were digested at 37° C. for 8 min. Digestion was stopped by adding HBSS-10% FCS-1% EDTA followed by extensive washes. For flow cytometry analysis, islets were isolated on a discontinuous Ficoll® PM400 gradient (Sigma-Aldrich) and then isolated islets were handpicked to exclude contaminations from intrapancreatic lymph nodes. Cells were released from the islets by incubation at 37° C. for 6 min in non-enzymatic cell dissociation solution (Sigma-Aldrich). For RT-qPCR, to avoid potential contamination by exocrine tissue, islets were purified by handpicking in 3 consecutive baths of HBSS-10% FCS supplemented with 1% DNAse 1.
Immune cells from the colon were isolated using the Lamina Propria Dissociation Kit from Miltenyi (#130-097-410), combined with gentleMACS™ Octo dissociator with heaters (#130-096-427) according to the manufacturer's instructions.
Single cell suspensions were prepared from various tissues, surface staining was performed after FcγRII/III blocking (anti-CD16/CD32) for 5 min at 4° C. and were surface stained for 30 min at 4° C. Staining buffer was PBS containing 2% FCS, 0.5% EDTA and 0.1% sodium azide. […] Stained cells were analyzed on a Becton Dickinson Fortessa flow cytometer. Data were analyzed with Flowjo™ v10 software.

The subject of test [4] is IGRP206-214-specific CD8+ T cells. Kind of test: Flow cytometry of diabetogenic IGRP206-214-specific CD8+ T cells. The following applies: 12-week-old NOD mice after intracolonic CRAMP as newborns. How it is done: as §1
Single cell suspensions were prepared from various tissues, surface staining was performed after FcγRII/III blocking (anti-CD16/CD32) for 5 min at 4° C. and were surface stained for 30 min at 4° C. Staining buffer was PBS containing 2% FCS, 0.5% EDTA and 0.1% sodium azide. For detection of the subsets of conventional dendritic cells, cells suspension were surface stained with anti-CD45, -TCRβ, -CD19-CD11c, -F4/80, -CD103, -CD11b. […] Stained cells were analyzed on a Becton Dickinson Fortessa flow cytometer. Data were analyzed with Flowjo™ v10 software.

In test [5] the test system is type I IFN signature. Kind of test: Colonic type I IFN signature (RNAseq, RT-qPCR). The method, then: (§2) Total RNA was isolated using the Nucleospin RNA XS kit (Macherey-Nagel) from a minimum of 100 handpicked islets per mouse or using Nucleospin RNA kit (Macherey-Nagel) for colon tissue. RNA was reverse transcribed to synthesized cDNA using the high capacity cDNA reverse transcription kit (ThermoFisher) and measurements were performed by qPCR using Power SYBR® Green (ThermoFisher) on a 7900HT Fast System (Applied Biosystems). Resulting levels of fluorescence were submitted to relative quantification by normalization against a housekeeping gene (GAPDH) and expressed as 2-(ΔCT) values.
Colon tissue was recovered from 5 mice from 5 independent cages per group. Total RNA were isolated from colon using the RNeasy Kit (QIAGEN) including a DNAse treatment step. RNA quality was assessed using RNA Screen Tape 6000 Pico LabChips with the Tape Station (Agilent Technologies) and RNA concentration was measured by spectrophometry using the Xpose (Trinean). RNAseq libraries were prepared starting from 1 μg of total RNA using the TruSeq Stranded mRNA LT Sample Prep Kit (Illumina) as recommended by the manufacturer. […] A mean of 23 million of paired-end reads was produced per library sample (between 21 to 25 million of passing filter reads). The generated data were analyzed using the Ingenuity Pathway Analysis software (Qiagen).

The test system of test [6] is TLR2 ligands. Kind of test: TLR2 ligand levels in colon extract (HEK-blue TLR reporter cells). The following applies: NOD mice, intracolonic CRAMP treatment. How it is done: (§3) Colons from 2-week-old mice were recovered in 100 μL PBS, cut in some pieces and homogenized by vortexing. Cell-free supernatant was recovered after centrifugation at 10 000 g for 10 min. A 100-fold dilution was used to measure TLR2 and TLR4 ligand levels in the supernatants using HEK-blue™ TLR reporter cells ([…], #hkb-mtlr2 and #hkb-mtlr4) according to the manufacturer protocol.

The test system of test [7] is TLR4 ligands. Kind of test: TLR4 ligand levels in colon extract (HEK-blue TLR reporter cells). To be noted: NOD mice, intracolonic CRAMP treatment. The method, then: as §3
Test [8] relates to inflammatory and regulatory cytokines in colon. Kind of test: Cytokine expression in colon (RT-qPCR). The method, then:
as §2

“Also recorded” adds a separate entry of the source.

CRAMP: in test [1] (female NOD mice, intracolonic CRAMP every 3 days from 10 to 21 days of age, control scCRAMP, FIG. 1A), the “development (incidence) of diabetes” value is “significantly prevented the development of diabetes”. The “incidence of diabetes in adopted NOD mice” value in test [1] (newborn NOD mice from untreated dams cross-fostered to NOD dams treated by CRAMP between 10 and 21 days of age, FIG. 1) was “decrease of diabetes development; also recorded: decreased incidence of diabetes in the adopted NOD mice”. Also, in test [2], the “abundance of the genera Lactobacillus and Bifidobacterium” value is recorded as “increased abundance”; the “abundance of the genus Alistipes” value was “decreased abundance”. In test [2] (control scCRAMP), the microbiota composition entry is “changed microbiota composition in the adult mice”. Also, the “frequency and absolute number of Treg cells” value in test [3] (prediabetic 12-week-old NOD mice after intracolonic CRAMP as newborns, pancreas, colon, PLN, MLN, spleen) was “increased the frequency, but not the absolute number, of Treg cells in the pancreas and colon of adult NOD mice”. The “frequency and absolute number of IGRP206-214-specific CD8+ effector T cells” value in test [4] was “decreased in the pancreas and PLN in the adult mice”. The “type I IFN signature in the colon” value in test [5] (colonic CRAMP treatment of 10-day-old NOD mice) is “reduced”. Besides, in test [5] (newborn NOD mice cross-fostered by NOD dams previously treated with CRAMP at 10 days of age), the “type I IFN signature in the newborns” value is reported as “prevented the aberrant type I IFN signature in the newborns”. Besides, the “level of TLR2 ligands in the colon” value in test [6] was “reduced the levels of TLR2 and TLR4 ligands in the colon”. Moreover, the “level of TLR4 ligands in the colon” value in test [7] is “reduced the levels of TLR2 and TLR4 ligands in the colon”. For the same compound, in test [8] (CRAMP treatment of adult NOD mice), the “cytokine profile in the colon” value is “inefficient at changing the cytokine profile in the colon”. The “expression of inflammatory cytokines in colon” value in test [8] (adult NOD colon after CRAMP treatment of newborn NOD mice) is “prevented the overexpression of inflammatory cytokines in the adult NOD colon”.
As to `CCNCc1nc2c(N)nc3ccccc3c2n1CC(C)(C)O` [gardiquimod, reference compound], in test [1] (gardiquimod, intracolonic, newborn female NOD mice), the diabetes incidence result was “increased”. The “frequency of pancreatic LAP+ Treg cells” value in test [3] (male NOD mice, intracolonic gardiquimod at 10 days of age, pancreatic islets at 12 weeks of age) is “decreased the frequency of pancreatic LAP+ Treg cells in the adult NOD mice”.
